Data on 20 compounds can be found in PubChem BioAssay AID338 (DTP/NCI, 2004).

This test has as its system BDF1 mice, P388 leukemia (terephthalanilide-resistant), survival T/C. The test can be described thus: NCI In Vivo Anticancer Drug Screen. Data for tumor model P388 Leukemia resistant to A Terephthalanilide; NSC 38280 (intraperitoneal) in B6D2F1 (BDF1) mice. To be noted: endpoint: median survival time, higher = longer survival. The procedure: The antitumor activity of compounds was measured in mice bearing transplantable tumors. Survival or tumor size were measured and the results are expressed as the measurement made in the treated group (T) divided by the measurement made in the vehicle treated control group (C). The tumor model used in this assay is P388 Leukemia resistant to A Terephthalanilide; NSC 38280 (intraperitoneal) in B6D2F1 (BDF1) mice

[1] abbreviates: dose: 31.3 mg/kg/injection, schedule: Q01DX010 (ip), vehicle: saline.
Setting [2] is: dose: 62.5 mg/kg/injection, schedule: Q01DX010 (ip), vehicle: saline.
Setting [3] is: dose: 125.0 mg/kg/injection, schedule: Q01DX010 (ip), vehicle: saline.
Where [4] appears, read: dose: 250.0 mg/kg/injection, schedule: Q01DX010 (ip), vehicle: saline.
Where [5] appears, read: dose: 2.0 mg/kg/injection, schedule: Q01DX010 (ip), vehicle: saline.
The mark [6] stands for this setting: dose: 8.0 mg/kg/injection, schedule: Q01DX010 (ip), vehicle: saline.
The mark [7] stands for this setting: dose: 3.13 mg/kg/injection, schedule: Q01DX010 (ip), vehicle: saline.
[8] abbreviates: dose: 1.5 mg/kg/injection, schedule: Q01DX010 (ip), vehicle: saline.
The mark [9] stands for this setting: dose: 6.0 mg/kg/injection, schedule: Q01DX010 (ip), vehicle: saline.
[10] abbreviates: dose: 12.0 mg/kg/injection, schedule: Q01DX010 (ip), vehicle: saline.
[11] abbreviates: dose: 18.0 mg/kg/injection, schedule: Q01DX010 (ip), vehicle: saline.

Values joined by “and” are separate entries in the source; they are usually repeats but may differ in a detail not shown here. Identical values can stand only once. Inconclusive results and toxic doses are left out.

For `CC[C@]1(O)C[C@H]2CN(CCc3c([nH]c4ccccc34)[C@@](C(=O)OC)(c3cc4c(cc3OC)N(C=O)[C@H]3[C@@](O)(C(=O)OC)[C@H](OC(C)=O)[C@]5(CC)C=CCN6CC[C@]43[C@@H]65)C2)C1`, the T/C runs as follows: (dose: 0.03 mg/kg/injection, schedule: Q01DX010 (ip), vehicle: saline) 105 % of control; (dose: 0.03 mg/kg/injection, schedule: Q01DX Z (ip), vehicle: saline) 90 % of control and 100 % of control; (dose: 0.06 mg/kg/injection, schedule: Q01DX010 (ip), vehicle: saline) 100 % of control; (dose: 0.06 mg/kg/injection, schedule: Q01DX Z (ip), vehicle: saline) 95 % of control; (dose: 0.12 mg/kg/injection, schedule: Q01DX010 (ip), vehicle: saline) 111 % of control; (dose: 0.13 mg/kg/injection, schedule: Q01DX Z (ip), vehicle: saline) 100 % of control. The T/C runs as follows: (dose: 0.25 mg/kg/injection, schedule: Q01DX010 (ip), vehicle: saline) 94 % of control; (dose: 0.25 mg/kg/injection, schedule: Q01DX Z (ip), vehicle: saline) 100 % of control; (dose: 0.5 mg/kg/injection, schedule: Q01DX Z (ip), vehicle: saline) 95 % of control and 100 % of control.

As for `CCOC(=O)NP(=O)(N1CC1(C)C)N1CC1(C)C` (stereo not drawn), the T/C was 110 % of control under setting [1], 160 % of control under setting [2], 190 % of control under setting [3] and 160 % of control under setting [4].

Regarding `Nc1nc(=S)c2[nH]cnc2[nH]1`, the T/C (dose: 1.25 mg/kg/injection, schedule: Q01DX010 (ip), vehicle: saline) was 162 % of control; the T/C (dose: 2.5 mg/kg/injection, schedule: Q01DX010 (ip), vehicle: saline) is 150 % of control and 175 % of control; the T/C (dose: 10.0 mg/kg/injection, schedule: Q01DX010 (ip), vehicle: saline) is 112 % of control.

For the compound `CC(CCC(C)OS(C)(=O)=O)OS(C)(=O)=O` (stereo not drawn), the T/C by setting is: under setting [5], 90 % of control and 95 % of control; (dose: 4.0 mg/kg/injection, schedule: Q01DX010 (ip), vehicle: saline) 95 % of control and 100 % of control; under setting [6], 100 % of control; (dose: 16.0 mg/kg/injection, schedule: Q01DX010 (ip), vehicle: saline) 86 % of control and 100 % of control.

`S=c1nc[nH]c2nc[nH]c12`: the T/C by setting is: (dose: 5.0 mg/kg/injection, schedule: Q01DX010 (ip), vehicle: alkali diluted with saline) 105 % of control; (dose: 5.0 mg/kg/injection, schedule: Q01DX Z (ip), vehicle: saline) 100 % of control; (dose: 10.0 mg/kg/injection, schedule: Q01DX010 (ip), vehicle: alkali diluted with saline) 88 % of control; (dose: 10.0 mg/kg/injection, schedule: Q01DX Z (ip), vehicle: saline) 100 % of control and 104 % of control; (dose: 20.0 mg/kg/injection, schedule: Q01DX010 (ip), vehicle: alkali diluted with saline) 100 % of control; (dose: 20.0 mg/kg/injection, schedule: Q01DX Z (ip), vehicle: saline) 100 % of control and 109 % of control. Besides, the T/C runs as follows: (dose: 40.0 mg/kg/injection, schedule: Q01DX010 (ip), vehicle: alkali diluted with saline) 94 % of control; (dose: 40.0 mg/kg/injection, schedule: Q01DX Z (ip), vehicle: saline) 122 % of control; (dose: 80.0 mg/kg/injection, schedule: Q01DX Z (ip), vehicle: saline) 154 % of control.

Turning to `O=C(Nc1ccc(NC(=O)Nc2ccc(C3=NCCN3)cc2)cc1)Nc1ccc(C2=NCCN2)cc1`, the T/C (dose: 110.0 mg/kg/injection, schedule: Q01DX010 (ip), vehicle: saline) is 111 % of control.

For `[I][Hg][CH2]C1COC([CH2][Hg][I])CO1` (stereo not drawn), the T/C is 91 % of control (dose: 0.78 mg/kg/injection, schedule: Q01DX010 (ip), vehicle: saline); 95 % of control (dose: 1.56 mg/kg/injection, schedule: Q01DX010 (ip), vehicle: saline); 91 % of control under setting [7].

As to `CC(=O)N(C)C`, the T/C is 90 % of control and 111 % of control under setting [2]; 100 % of control under setting [3]; 88 % of control under setting [4]; 95 % of control and 100 % of control (dose: 500.0 mg/kg/injection, schedule: Q01DX010 (ip), vehicle: saline).

`O[C@H](CN1CC1)[C@@H](O)CN1CC1`: the T/C was 120 % of control (dose: 62.5 micrograms/kg/injection, schedule: Q01DX010 (ip), vehicle: saline); 200 % of control (dose: 125.0 micrograms/kg/injection, schedule: Q01DX010 (ip), vehicle: saline); 175 % of control (dose: 250.0 micrograms/kg/injection, schedule: Q01DX010 (ip), vehicle: saline); 120 % of control (dose: 500.0 micrograms/kg/injection, schedule: Q01DX010 (ip), vehicle: saline).

Turning to `O=C(Nc1ccc(C2=NCCN2)cc1)c1cccc(C(=O)Nc2ccc(C3=NCCN3)cc2)c1`, the T/C by setting is: under setting [6], 112 % of control; (dose: 64.0 mg/kg/injection, schedule: Q01DX010 (ip), vehicle: saline) 150 % of control.

Regarding `Nc1ncnc2[nH]ncc12`, the T/C is 90 % of control and 95 % of control under setting [8]; 90 % of control (dose: 3.0 mg/kg/injection, schedule: Q01DX010 (ip), vehicle: saline); 90 % of control and 95 % of control under setting [9]; 90 % of control and 100 % of control under setting [10].

On to `CN[C@H]1CCc2cc(OC)c(OC)c(OC)c2-c2ccc(OC)c(=O)cc21`, for which the T/C is 94 % of control and 110 % of control (dose: 0.63 mg/kg/injection, schedule: Q01DX010 (ip), vehicle: other); 100 % of control and 110 % of control (dose: 1.25 mg/kg/injection, schedule: Q01DX010 (ip), vehicle: other); 100 % of control and 120 % of control (dose: 2.5 mg/kg/injection, schedule: Q01DX010 (ip), vehicle: other); 88 % of control and 115 % of control (dose: 5.0 mg/kg/injection, schedule: Q01DX010 (ip), vehicle: other).

On to `O=C1CCC(N2C(=O)c3ccccc3C2=O)C(=O)N1` (stereo not drawn), for which the T/C is, setting by setting: under setting [1], 117 % of control; under setting [2], 100 % of control and 117 % of control; under setting [3], 100 % of control and 105 % of control; under setting [4], 90 % of control and 94 % of control.

For the compound `CN(C)c1ccc(/C=C\c2ccnc3ccccc23)cc1`, the T/C is, setting by setting: under setting [8], 91 % of control; under setting [10], 91 % of control.

For `CN=C(NC)c1ccc(NC(=O)c2ccc(C(=O)Nc3ccc(C(=NC)NC)cc3)c(Cl)c2)cc1`, the T/C is 105 % of control under setting [11] and 100 % of control (dose: 27.0 mg/kg/injection, schedule: Q01DX010 (ip), vehicle: saline).

Consider `C[C@H]1C(=O)O[C@@H]2CCN3CC=C(COC(=O)[C@](C)(O)[C@@]1(C)O)[C@H]23`, for which the T/C under setting [7] is 90 % of control and 100 % of control; the T/C (dose: 6.25 mg/kg/injection, schedule: Q01DX010 (ip), vehicle: saline) is 95 % of control; the T/C (dose: 12.5 mg/kg/injection, schedule: Q01DX010 (ip), vehicle: saline) was 95 % of control and 100 % of control; the T/C (dose: 25.0 mg/kg/injection, schedule: Q01DX010 (ip), vehicle: saline) is 105 % of control and 109 % of control.

As for `CCCNC(=NC)c1ccc(NC(=O)c2ccc(C(=O)Nc3ccc(C(=NC)NCCC)cc3)cc2)cc1`, the T/C runs as follows: (dose: 5.2 mg/kg/injection, schedule: Q01DX010 (ip), vehicle: saline) 100 % of control; under setting [6], 100 % of control; under setting [10], 111 % of control; under setting [11], 111 % of control.

For `NC(=O)N(CCCl)N=O`, the T/C was 172 % of control (dose: 0.5 mg/kg/injection, schedule: Q01DX010 (ip), vehicle: saline); 172 % of control (dose: 1.0 mg/kg/injection, schedule: Q01DX010 (ip), vehicle: saline); 109 % of control under setting [5].

`O=C(Nc1ccc(C2=NCCN2)cc1)c1ccc(C(=O)Nc2ccc(C3=NCCN3)cc2)c([N+](=O)[O-])c1`: the T/C is 110 % of control and 122 % of control under setting [9]; 110 % of control and 122 % of control under setting [6]; 122 % of control under setting [10]; 88 % of control and 105 % of control under setting [11].

As to `CN(C)c1nc(N(C)C)nc(N(C)C)n1`, the T/C was 100 % of control and 116 % of control (dose: 18.8 mg/kg/injection, schedule: Q01DX010 (ip), vehicle: saline); 100 % of control and 105 % of control (dose: 37.5 mg/kg/injection, schedule: Q01DX010 (ip), vehicle: saline); 100 % of control and 111 % of control (dose: 75.0 mg/kg/injection, schedule: Q01DX010 (ip), vehicle: saline); 100 % of control and 105 % of control (dose: 150.0 mg/kg/injection, schedule: Q01DX010 (ip), vehicle: saline).
